Data as given in PMC5118696, “Identification of inhibitors that dually target the new permeability pathway and dihydroorotate dehydrogenase in the blood stage of Plasmodium falciparum” (Scientific Reports, 2016).
Read-outs that look alike come from different tables or passages of the source.

Experiments:
[1] = test system: Hyp1-NLuc Plasmodium falciparum-infected erythrocytes (new permeability pathway, NPP); experiment: microbe, parasite or virus in culture; details: Erythrocyte, 0.33 h, read-out: % of control remaining
[2] = test system: Hyp1-NLuc Plasmodium falciparum-infected erythrocytes (new permeability pathway, NPP); experiment: microbe, parasite or virus in culture; details: Erythrocyte, 0.33 h, read-out: Mean RLU at 28 min (As % of DMSO control)

Structure (SMILES) | activity at 2 µM [1] | activity at 2 µM [2]
CC(C)(C)CC(C)(C)NCC(O)COc1ccc2c(c1)CCC2 (centres unmarked) [MMV665817] | 120% | 106%
Cc1cc(Nc2ccc(C)c(Cl)c2)n2nc(C(F)(F)F)nc2n1 [MMV665874] | 106% | 107%
COc1ccc2sc(N(Cc3cccnc3)C(=O)c3ccc(C#N)cc3)nc2c1 [MMV001239] | 64.1% | 92.1%
COc1ccc(Nc2cc(C)nc(NCc3ccccc3)n2)cc1 [MMV006825] | 110% | 107%
COc1cc(C(=O)Nc2nc3c(cc4c5c(cccc53)CC4)s2)cc(OC)c1OC [MMV396665] | 102% | 103%
COc1ccc(N2CCN(C(CNC(=O)C3CCCCC3)c3ccc4c(c3)OCO4)CC2)cc1 (centres unmarked) [MMV019662] | 114% | 103%
CCn1c(CN2CCN(Cc3ccccc3)CC2)nc2cc(NC(=O)c3cccs3)ccc21 [MMV020439] | 18.4% | 20.1%
CC(C)(C)c1ccc2c(c1)CN(Cc1ccc(Cl)cc1)CO2 [MMV000442] | 113% | 109%
COCCNC(=O)c1ccc(OC2CCN(Cc3ccc(F)c(F)c3)CC2)c(Cl)c1 [MMV666072] | 115% | 103%
O=C1c2ccccc2-c2nnc(-c3ccc(Br)cc3)cc21 [MMV665934] | 97.2% | 92.6%
COc1ccc(-c2nc(NC(=O)CS(=O)(=O)c3ccc(F)cc3)sc2C)cc1 [MMV665915] | 98.3% | 101%
CC1CCN(Cc2c(O)ccc3cc(-c4nc5ccccc5s4)c(=O)oc23)CC1 [MMV009127] | 105% | 101%
N=c1n(CCN2CCCCC2)c2ccccc2n1CC(=O)c1ccc(Cl)c(Cl)c1 [MMV396723] | 91.7% | 98.3%
CCCc1c(CC)c(=N)c2ccccc2n1C [MMV008416] | 100% | 98.9%
CCOC(=O)C1=CN(C)C=C(C(=O)OCC)C1c1cc(Br)c(OCC)c(OC)c1 [MMV006656] | 102% | 105%
Cc1ccc(CN2CCC(C(=O)Nc3ccc(-c4cc5ccccc5[nH]4)cc3)CC2)o1 [MMV666071] | 101% | 94.8%
CCN(CC)CCCNc1ccnc2cc3ccccc3cc12 [MMV665783] | 106% | 101%
COC(=O)c1ccc(C2C3=C(O)CC(c4ccc(F)cc4)CC3=Nc3ccccc3N2C(=O)c2ccccc2)cc1 (centres unmarked) [MMV011438] | 89.7% | 92.2%
CN1CCN(c2ncnc3c2[nH]c2ccc(Cl)cc23)CC1 [MMV396704] | 95.6% | 95.9%
O=C(NCC(c1ccsc1)N1CCCCCC1)c1ccc(C(F)(F)F)cc1 (centres unmarked) [MMV396672] | 98.1% | 101%
Cc1ccc(OCCCCCCNCCO)c(C)c1 [MMV666020] | 97.1% | 97%
Cc1ccccc1OCCSc1nc2ccc(NC(=O)c3cccs3)cc2s1 [MMV007396] | 111% | 104%
CCOC(=O)c1cnc2c(C)cccc2c1Nc1ccc(C(C)=O)cc1 [MMV006250] | 103% | 95.8%
O=C(Nc1ccc(N2CCCCC2)c(Cl)c1)c1ccc(Br)o1 [MMV019700] | 118% | 117%
CCOC(=O)C1(Cc2ccccc2)CCN(Cc2cccc(OC)c2O)CC1 [MMV666109] | 97.9% | 93.9%
CC(=O)NCCc1nc2ccccc2n1Cc1ccc(C(C)C)cc1 [MMV007617] | 82.1% | 95.2%
CN(C)c1ccc(N2C(N)=NC(N)=NC2(C)C)cc1 [MMV667487] | 98.1% | 97%
COCCNCC(O)Cn1c2ccc(Cl)cc2c2cc(Cl)ccc21 (centres unmarked) [MMV019017] | 100% | 105%
